Data reported in PubChem BioAssay AID1648 (Sanford-Burnham Center for Chemical Genomics, 2009).
Active and inactive are the calls of the source. The rule behind the calls is not given here.

Target: Serine/threonine-protein kinase mTOR (Homo sapiens) (UniProt P42345)
Test: binders of mTOR FRB domain, biophysical, NMR (AID 1648)
Details: NMR binding to FRB domain, chemical shift

Serine/threonine-protein kinase mTOR (Homo sapiens), sequence (P42345 2015-2114): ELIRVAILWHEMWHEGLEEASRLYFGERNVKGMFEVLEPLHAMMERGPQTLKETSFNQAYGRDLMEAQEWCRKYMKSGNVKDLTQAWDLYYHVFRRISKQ

SMILES	Kd
Nc1ccc(-n2cncn2)cc1	> 4 mM (inactive)
O=C(O)/C=C/C(=O)Nc1ccccc1C(F)(F)F	> 4 mM (inactive)
CC(=O)Oc1ccc(/C=C/c2cc(OC(C)=O)cc(OC(C)=O)c2)cc1	> 4 mM (inactive)
Nc1nsc(-c2ccccc2)n1	> 4 mM (inactive)
O=C1NC(=O)C(=Cc2cccs2)C(=O)N1	> 4 mM (inactive)
O=C(O)CC1Sc2ccccc2NC1=O (stereo unspecified)	> 4 mM (inactive)
CSc1nnc2ccc(-c3cccnc3)nn12	> 4 mM (inactive)
Cc1cccc(-c2nnc(-c3ccc(N)cc3)o2)c1	> 4 mM (inactive)
C=CCn1c(N)c(C(=O)N2CCOCC2)sc1=S	> 4 mM (inactive)
O=C(O)c1cc2ccccc2o1	> 4 mM (inactive)
CC1(C)Cc2nc3n[nH]c(N)c3cc2CO1	> 4 mM (inactive)
Cc1nc2ccccc2c(=O)n1NC(=O)Nc1ccccc1	> 4 mM (inactive)
O=C1CC(=O)N(c2ccccc2)C(=O)N1	> 4 mM (inactive)
O=C(O)Cc1nc(-c2ccncc2)n[nH]1	> 4 mM (inactive)
Cc1sc2nc(NCCO)[nH]c(=O)c2c1C	> 4 mM (inactive)
Cc1ccc(S(=O)(=O)CC(N)=O)cc1	> 4 mM (inactive)
O=C1C2C3C=CC(C3)C2C(=O)N1CCO (stereo unspecified)	> 4 mM (inactive)
O=C1C=CC2=C3c4cc(O)c(O)cc4C[C@@]3(O)COC2=C1	> 4 mM (inactive)
c1ccc(C[N+]23CCN(CC2)CC3)cc1	> 4 mM (inactive)
COC(=O)c1[nH]c2ccccc2c1C(=O)OC	> 4 mM (inactive)
NC(=O)Cc1nc2ccccc2[nH]1	> 4 mM (inactive)

SMILES	Kd
NC1=NC(=O)/C(=C/c2cccc([N+](=O)[O-])c2)S1	> 4 mM (inactive)
COc1cc2ccc(=O)oc2c2ccoc12	> 4 mM (inactive)
Oc1cccc(N2CCOCC2)c1	> 4 mM (inactive)
COc1ccccc1-c1nc(=S)[nH][nH]1	> 4 mM (inactive)
C[C@@H]1CCC2[C@](C)(CO)[C@@H](O)CC[C@]2(C)[C@@]12CC[C@@](CO)(CCO)O2 (stereo partly specified)	> 4 mM (inactive)
COC(=O)c1ccccc1NC(=O)c1cc[n+]([O-])cc1	> 4 mM (inactive)
O=C(NCCO)c1cc2ccccc2c(=O)s1	> 4 mM (inactive)
Cc1ccc(SCc2cc(=O)n3[nH]c(C)nc3n2)cc1	> 4 mM (inactive)
O=c1nc(N2CCOCC2)nc2n1CCO2	> 4 mM (inactive)
CCOC(=O)c1c(C)cc(O)cc1O	> 4 mM (inactive)
COCC(=O)Nc1cc2c3c(c1)CCN3C(=O)CC2	> 4 mM (inactive)
NCc1ccc(S(=O)(=O)O)cc1	> 4 mM (inactive)
O=C(O)c1c[nH]c2ccccc12	> 4 mM (inactive)
NC(=O)/C=C/C(=O)Nc1ccccc1	> 4 mM (inactive)
Nc1n[nH]c(=S)n1-c1ccccc1	> 4 mM (inactive)
COC(=O)NNc1ncnc(N)c1[N+](=O)[O-]	> 4 mM (inactive)
N#CCN1C(=O)c2ccccc2S1(=O)=O	> 4 mM (inactive)
O=C(O)c1ccccc1C(=O)NCC1CCCO1 (stereo unspecified)	> 4 mM (inactive)
CC(C)=NNC(=O)C(=O)NC(C)(C)C	> 4 mM (inactive)
Cc1nn(C)c(C)c1NC(=S)NC1CCCC1	> 4 mM (inactive)
CCC(=O)OC1[C@@H]2CC3=C4CC(=O)O[C@@H](c5ccoc5)[C@]4(C)CCC3C(C)(C2=O)[C@@H](CC(=O)OC)C1(C)C (stereo partly specified)	> 4 mM (inactive)

SMILES	Kd
O=S1(=O)CCC(NC(=S)N2CCCCC2)C1 (stereo unspecified)	> 4 mM (inactive)
N=Cc1c(O)n(-c2cccc(Cl)c2)c(=O)[nH]c1=O	> 4 mM (inactive)
O=C(O)CNS(=O)(=O)c1cccs1	> 4 mM (inactive)
NC(=O)CN1CCCCCC1=O	> 4 mM (inactive)
Cc1csc(NC(=O)c2cccs2)n1	> 4 mM (inactive)
NC(=O)c1ccsc1NC(=O)c1ccccc1[N+](=O)[O-]	> 4 mM (inactive)
COc1ccc(-c2c(C)n([O-])c(C)c(C)[n+]2=O)cc1	> 4 mM (inactive)
NC(=O)CSc1nnc(-c2cccnc2)o1	> 4 mM (inactive)
O=C(Nc1nnc(-c2ccco2)o1)C1=COCCO1	> 4 mM (inactive)
O=C(CN1CCOCC1)Nc1cccc(Br)c1	> 4 mM (inactive)
O=C(c1ccco1)N1CCn2c1nc1ccccc12	> 4 mM (inactive)
Cc1cccc(NC(=O)Nc2cc(C)on2)c1	> 4 mM (inactive)
CC(=O)Nc1nnc(-c2ccccc2)o1	> 4 mM (inactive)
NC12CC3CC(C1)CC(O)(C3)C2	> 4 mM (inactive)
CCn1cnc2cc(NCc3ccncc3)ccc21	> 4 mM (inactive)
Cc1cccc(CSc2nncc(=O)[nH]2)c1	> 4 mM (inactive)
Cc1c(C(=O)O)cnn1-c1ccccc1	> 4 mM (inactive)
Cc1nnsc1C(=O)Nc1ccc(C(N)=O)cc1	> 4 mM (inactive)
C/C(=N\NC(N)=S)C(=O)O	> 4 mM (inactive)
